Earlier results in patent publication EP3854384A1, “PHARMACEUTICAL FORMULATION COMPRISING ABIRATERONE ACETATE” (Adamed Pharma S.A., priority 2020, dated 2021).

Conditions: low water solubility and low intestinal permeability

Biopharmaceutical Classification System (BCS) class: class IV
Compound: CC(=O)O[C@H]1CC[C@@]2(C)C(=CC[C@@H]3[C@@H]2CC[C@]2(C)C(c4cccnc4)=CC[C@@H]32)C1 [Abiraterone acetate, (3β)-17-(3-pyridinyl)androsta-5,16-dien-3-yl acetate]
